# In paper PMC9919490, “Synthesis and Biological Evaluation of Novel Dispiro-Indolinones with Anticancer Activity” (Molecules, 2023):
# What was measured:
# [1] = test system: HCT^wt cells; experiment: MTT cytotoxicity assay, HCT^wt (p53 pos); type: cell-based; settings: 48 h
# Protocol: (§1) The synthesized compounds were tested for their ability to block the proliferation of the selected model cell lines: LNCaP (p53+), PC3 (p53-), HCT^wt (p53+), and HCT^−/− (p53-) cells. The assay was carried out using the standard MTT (3-(4,5-dimethylthiazol-2-yl)2,5-diphenyl tetrazolium bromide) assay based on the modified approach reported by Ferrari and colleagues. […] Differences in IC50 values against these cell lines were used to assess the selectivity of the compounds.
# (§2) Model cell lines were purchased from the in stock collection of the N.N. Blokhin Russian Cancer Research Center (RAMS). Cells were accurately maintained in the recommended media, supplemented with 10% heat-inactivated FBS (Invitrogen) and 2 mmol/L L-glutamine (Invitrogen).
# (§3) First, 4000 cells per well were plated out in 140 µL of DMEM (with 10% FBS) in 96-well plates and incubated in 5% CO2 for 24 h at 37 °C without treatment. […] The cells were treated for 48 h with […] (eight dilutions) concentrations of the substances (each in triplicate) or doxorubicin (0.3 nM–600 nM, eight dilutions) as a control substance. After the incubation, 15 µL of MTT solution in PBS (5 mg/mL) was added, and the cells were incubated for 2 h, followed by removal of the media and addition of 120 µL of DMSO. […] Cell survival rates were determined by the comparison of optical density with the corresponding untreated control cell culture. Dose-dependent curves and the corresponding IC50 values were calculated using “GraphPad Prism 6” software (GraphPad Software, Inc., San Diego, CA, USA).
# [2] = test system: LNCaP cells; experiment: MTT cytotoxicity assay, LNCaP (p53 pos); type: cell-based; settings: 48 h
# Protocol: as §1, §2, §3
# [3] = test system: HCT^−/− cells; experiment: MTT cytotoxicity assay, HCT^−/− (p53 neg); type: cell-based; settings: 48 h
# Protocol: as §1, §2, §3
# [4] = test system: PC3 cells; experiment: MTT cytotoxicity assay, PC3 (p53 neg); type: cell-based
# Protocol: as §1, §2, §3
# [5] = test system: SJSA1 human osteosarcoma cells; settings: cited from earlier work
# [6] = test system: xenograft models of human cancer; design: method as in PMID 26041888; settings: two types of xenograft models, oral administration; cited from earlier work
# [7] = test system: HepG2 cells; design: method as in PMID 22524527, PMID 11495595, PMID 20218717; settings: Figure 3; cited from earlier work
# [8] = test system: LNCaP; settings: MTT tests; cited from earlier work
# [9] = test system: HCT116; settings: MTT tests; cited from earlier work
# [10] = design: method as in PMID 22524527, PMID 11495595, PMID 20218717; settings: Figure 3; cited from earlier work
# [11] = at 50 mg/kg, mice; cited from earlier work
# [12] = target: MDM2; settings: no reference given; cited from earlier work
# [13] = test system: MDM2–p53 PPI; settings: Figure 5a, template molecules; cited from earlier work
# [14] = test system: LNCaP cells expressing AR; design: method as in PMID 22524527, PMID 11495595, PMID 20218717; settings: Figure 3; cited from earlier work
SMILES,IC50 [1],IC50 [3],IC50 [2],IC50 ([4]; 48 h),further results
C#CCN1C(=O)[C@]2(c3ccccc31)N(C)C[C@H](c1cccc(Cl)c1)[C@]21NC(=S)N(c2ccc(OC)c(Cl)c2)C1=O [Compound 69],> 100 µM,> 100 µM,,,"IC50 ([2]; Homo sapiens, LNCaP): > 100 µM; melting point: 199 to 200 °C; IC50 ([4]; Homo sapiens, PC-3, 48 h): > 100 µM"
CC(C)(C)C[C@@H]1N[C@@H](C(=O)N[C@H]2C[C@@](C)(O)C2)[C@H](c2cccc(Cl)c2F)[C@]12C(=O)Nc1cc(Cl)ccc12 [MI-888],,,,,"IC50 [5]: ~0.09 µM; tumor regression [6]: rapid, complete, and durable tumor regression"
N#Cc1cc(N2C(=O)C3(CCC3)N(c3ccc(C(=O)NCCCN4CCCC4)c(F)c3)C2=S)ccc1C(F)(F)F [XIX],,,,,IC50 [7]: < 1 µM
COc1cc(NC(=O)C[C@@]2(C)C[C@H](c3cccc(Cl)c3)[C@@H](c3ccc(Cl)c(F)c3)N([C@H](CS(=O)(=O)C(C)(C)C)C3CC3)C2=O)ccc1C(=O)O [AM-7209],,,,,IC50 [5]: 0.0016 µM
CCOc1cc(C(C)(C)C)ccc1C1=N[C@@](C)(c2ccc(Cl)cc2)[C@@](C)(c2ccc(Cl)cc2)N1C(=O)N1CCN(CCCS(C)(=O)=O)CC1 [RG-7112],,,,,CC50 [8]: 0.18 µM; CC50 [9]: 0.54 ± 0.12 µM
O=C1NC(=S)N[C@@]12O[C@H](CO)[C@@H](O)[C@H](O)[C@H]2O [XVIII],,,,,Ki [10]: 0.007 ± 0.0011 µM
CN1C[C@H](c2cccc(Cl)c2)[C@]2(NC(=S)N(c3ccc(F)c(Cl)c3)C2=O)[C@]12C(=O)Nc1ccc(Cl)cc12 (racemic) [Compound 43],9.3 ± 4.6 µM,9.5 ± 4.9 µM,3.2 ± 1.6 µM,5.7 ± 2.6 µM,
CN1C[C@H](c2ccncc2)[C@]2(NC(=S)N(c3ccccc3)C2=O)[C@]12C(=O)Nc1ccc(Br)cc12 (racemic) [Compound 20],> 100 µM,> 100 µM,> 100 µM,> 100 µM,
CCc1ccc([C@H]2CN(C)[C@@]3(C(=O)Nc4ccccc43)[C@@]23NC(=S)N(c2ccc(F)c(Cl)c2)C3=O)cc1 (racemic) [Compound 46],6.3 ± 2.5 µM,6.5 ± 3.6 µM,> 100 µM,> 100 µM,
CN1C[C@H](c2ccc(Cl)cc2)[C@]2(NC(=S)N(c3ccc(Cl)cc3)C2=O)[C@]12C(=O)Nc1ccc(Cl)cc12 (racemic) [Compound 37],> 100 µM,> 100 µM,> 100 µM,> 100 µM,
COc1ccc([C@H]2CN(C)[C@@]3(C(=O)Nc4ccccc43)[C@@]23NC(=S)N(c2ccc(F)c(Cl)c2)C3=O)cc1 (racemic) [Compound 41],> 100 µM,> 100 µM,> 100 µM,> 100 µM,
CC(C)(C)C[C@H]1N[C@@H](C(=O)NCC[C@H](O)CO)[C@H](c2cccc(Cl)c2)[C@@]12C(=O)Nc1cc(Cl)c(F)cc12.Cl [MI-219],,,,,oral bioavailability [11]: 55–65%; Ki [12]: 0.005 µM
CN1C[C@H](c2ccccc2)[C@]2(NC(=S)N(c3ccccc3)C2=O)[C@]12C(=O)Nc1ccc(Br)cc12 (racemic) [Compound 5],10.5 ± 2.3 µM,12.5 ± 3.2 µM,2.2 ± 0.8 µM,4.6 ± 2.5 µM,
CN1C[C@H](c2ccc(Cl)cc2)[C@]2(NC(=S)N(c3ccc(F)cc3)C2=O)[C@]12C(=O)Nc1ccc(Br)cc12 (racemic) [Compound 40],> 100 µM,> 100 µM,> 100 µM,> 100 µM,
CN1CC(c2ccccc2)C2(NC(=S)N(c3ccccc3)C2=O)C12C(=O)Nc1ccccc12 (centres unmarked) [Compound 4],> 100 µM,> 100 µM,,,"IC50 ([2]; Homo sapiens, LNCaP): > 100 µM; melting point: 211 to 212 °C; IC50 ([4]; Homo sapiens, PC-3, 48 h): > 100 µM"
CC(c1ccccc1)N1C(=O)C2(NC1=S)C(c1cccc(Cl)c1)CN(C)C21C(=O)Nc2ccc(Br)cc21 (mixture of isomers) [Compound 63],8 ± 2.5 µM,> 100 µM,3.4 ± 1.5 µM,8.8 ± 3.1 µM,
CC(C)(C)CC1NC(C(=O)NCCN)C(c2cccc(Cl)c2F)C12C(=O)Nc1cc(Cl)ccc12 (centres unmarked) [XX],,,,,IC50 [13]: 0.0094 µM
CN1C[C@H](c2ccccc2Cl)[C@]2(NC(=S)N(c3ccc(O)cc3)C2=O)[C@]12C(=O)Nc1ccccc12 (racemic) [Compound 53],> 100 µM,> 100 µM,> 100 µM,> 100 µM,
CN1C[C@H](c2cccc(Cl)c2)[C@]2(NC(=S)N(c3ccccc3)C2=O)[C@]12C(=O)Nc1ccc(Br)cc12 (racemic) [Compound 15],> 100 µM,> 100 µM,> 100 µM,> 100 µM,
CC(c1ccccc1)N1C(=O)C2(NC1=S)C(c1ccccc1Cl)CN(C)C21C(=O)Nc2ccc(Cl)cc21 (mixture of isomers) [Compound 64],24 ± 6.7 µM,> 100 µM,> 100 µM,> 100 µM,
"CN1CC(c2ccc(Cl)cc2)C2(NC(=S)N(c3ccc(O)cc3)C2=O)C12C(=O)Nc1ccccc12 (centres unmarked) [Compound 50, 1-(4-hydroxyphenyl)-4’-(4-chlorophenyl)-1’-methyl-2-thiooxodispiro[imidazolidine-4,3’-pyrrolidine-2’,3”-indoline]-2”,5-dione]",6.9 ± 3.1 µM,> 100 µM,18 ± 4.7 µM,4.65 ± 2.3 µM,
CC(c1ccccc1)N1C(=O)C2(NC1=S)C(c1ccccc1Cl)CN(C)C21C(=O)Nc2ccc(Br)cc21 (mixture of isomers) [Compound 62],> 100 µM,> 100 µM,> 100 µM,> 100 µM,
"CN1CC(c2ccc(Cl)cc2)C2(NC(=S)N(c3ccc(O)cc3)C2=O)C12C(=O)Nc1ccc(Br)cc12 (centres unmarked) [Compound 51, 1-(4-hydroxyphenyl)-4’-(4-chlorophenyl)-1’-methyl-5’’’-bromo-2-thiooxodispiro[imidazolidine-4,3’-pyrrolidine-2’,3”-indoline]-2”,5-dione]",> 100 µM,> 100 µM,> 100 µM,> 100 µM,
COc1ccc([C@H]2CN(C)[C@@]3(C(=O)Nc4ccc(Br)cc43)[C@@]23NC(=S)N(c2ccc(O)cc2)C3=O)cc1OC (racemic) [Compound 56],> 100 µM,> 100 µM,9 ± 2 µM,30 ± 10.5 µM,
Cc1ccc(N2C(=S)N(c3ccc(C#N)c(C(F)(F)F)c3)C(=O)C23CCC3)cc1 [XVII],,,,,IC50 [14]: 0.124 µM
CC(c1ccccc1)N1C(=O)C2(NC1=S)C(c1ccc(Cl)cc1)CN(C)C21C(=O)Nc2ccc(Br)cc21 (mixture of isomers) [Compound 65],> 100 µM,> 100 µM,> 100 µM,> 100 µM,
CCOc1ccc(N2C(=O)[C@]3(NC2=S)[C@@H](c2ccc(Cl)c(Cl)c2)CN(C)[C@@]32C(=O)Nc3ccccc32)cc1 (racemic) [Compound 27],> 100 µM,> 100 µM,> 100 µM,> 100 µM,
CN1C[C@H](c2ccccc2Br)[C@]2(NC(=S)N(c3ccccc3)C2=O)[C@]12C(=O)Nc1ccccc12 (racemic) [Compound 8],> 100 µM,> 100 µM,> 100 µM,> 100 µM,
CN1C[C@H](c2ccncc2)[C@]2(NC(=S)N(c3ccccc3)C2=O)[C@]12C(=O)Nc1ccc(Cl)cc12 (racemic) [Compound 21],50.5 ± 10.2 µM,> 100 µM,> 100 µM,> 100 µM,
CN1C[C@H](c2ccccc2Cl)[C@]2(NC(=S)N(c3ccc(O)cc3)C2=O)[C@]12C(=O)Nc1ccc(Cl)cc12 (racemic) [Compound 55],> 100 µM,> 100 µM,7 ± 1 µM,15.1 ± 1.2 µM,
